Assay results: patent publication US20230002359A1, “PESTICIDALLY ACTIVE FUSED BICYCLIC HETEROAROMATIC COMPOUNDS” (priority 2019, published 2023)

Columns and labels:
Assay type in all cases: in vivo
[1] = tested on: Diabrotica Balteata (Corn Root Worm); test: Example B1: Diabrotica balteata (corn root worm), maize sprouts sprayed, L2 larvae; settings: 96 h, application rate of 200 ppm, 4 days after infestation, L2 larvae, read-out: control in at least one of the two categories (mortality or growth inhibition)
Method in brief: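 Maize sprouts on agar were sprayed with aqueous test solutions made from 10′000 ppm DMSO stocks, dried, then infested with 6 to 10 L2 larvae per well. Mortality and growth inhibition were scored against untreated samples 4 days after infestation.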

[2] = tested on: Chilo suppressalis (Striped Rice Stemborer); test: Example B3: Chilo suppressalis (striped rice stemborer), artificial diet, L2 larvae; settings: 144 h, application rate of 200 ppm, 6 days after infestation, L2 larvae, read-out: control in at least one of the three categories (mortality, anti-feedant effect, or growth inhibition)
Method in brief: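 First, artificial diet was treated with aqueous solutions prepared from 10'000 ppm DMSO stocks; second, after drying, L2 larvae (6-8/well) were added; third, effects were assessed at 6 days against untreated controls, counting control when any of three categories was higher.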

[3] = tested on: Plutella xylostella (Diamond Back Moth); test: Example B4: Plutella xylostella (diamond back moth), artificial diet, eggs, 24-well; settings: 192 h, application rate of 200 ppm, 8 days after infestation, eggs, read-out: control in at least one of the two categories (mortality or growth inhibition)
Experimental: 24-well microtiter plates with artificial diet were treated with aqueous test solutions prepared from 10′000 ppm DMSO stock solutions by pipetting. After drying, Plutella eggs were pipetted through a plastic stencil onto a gel blotting paper and the plate was closed with it. The samples were assessed for mortality and growth inhibition in comparison to untreated samples 8 days after infestation.

[4] = tested on: Spodoptera littoralis (Egyptian Cotton Leaf Worm); test: Example B7: Spodoptera littoralis (Egyptian cotton leaf worm), cotton leaf discs sprayed, L1 larvae; settings: foliar, 72 h, application rate of 200 ppm, 3 days after infestation, L1 larvae, read-out: control in at least one of the three categories (mortality, anti-feedant effect, or growth inhibition)
Method in brief: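 Leaf discs on agar; spray, aqueous dilution of 10′000 ppm DMSO stock; dry; 5 L1 larvae/disc. Read at 3 d post-infestation: mortality, antifeedant, growth inhibition vs untreated. Control = ≥1 category above untreated.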

CC(c1nccnc1-n1nccn1)N(C)c1ncnc2c(C(F)(F)F)cc(Cl)cc12 (centres unmarked) [P.129, 6-chloro-N-methyl-N-[1-[3-(triazol-2-yl)pyrazin-2-yl]ethyl]-8-(trifluoromethyl)quinazolin-4-amine]
≥ 80%: percent control (mortality or growth inhibition) at 200 ppm [1] | percent control (mortality, anti-feedant effect or growth inhibition) at 200 ppm [2] | percent control (mortality or growth inhibition) at 200 ppm [3] | percent control (mortality, anti-feedant effect or growth inhibition) at 200 ppm [4]

CC(Nc1ncnc2c(Br)cc(Br)cc12)c1ncnn1-c1ccc(C#N)cn1 (centres unmarked) [P.30, 6-[5-[1-[(6,8-dibromoquinazolin-4-yl)amino]ethyl]-1,2,4-triazol-1-yl]pyridine-3-carbonitrile]
≥ 80%: percent control (mortality or growth inhibition) at 200 ppm [1] | percent control (mortality, anti-feedant effect or growth inhibition) at 200 ppm [2] | percent control (mortality or growth inhibition) at 200 ppm [3] | percent control (mortality, anti-feedant effect or growth inhibition) at 200 ppm [4]

CC(c1nccnc1-c1ccc(OC(F)F)cn1)N(C)c1ncnc2c(C(F)(F)F)cc(Br)cc12 (centres unmarked) [P.273, 6-bromo-N-[1-[3-[5-(difluoromethoxy)-2-pyridyl]pyrazin-2-yl]ethyl]-N-methyl-8-(trifluoromethyl)quinazolin-4-amine]
≥ 80%: percent control (mortality or growth inhibition) at 200 ppm [1] | percent control (mortality, anti-feedant effect or growth inhibition) at 200 ppm [2] | percent control (mortality or growth inhibition) at 200 ppm [3] | percent control (mortality, anti-feedant effect or growth inhibition) at 200 ppm [4]

C[C@@H](c1ncnn1-c1ncccn1)N(C)c1c(F)cnc2c(C(F)(F)F)cc(C(F)(F)F)cc12 [P.176, 3-fluoro-N-methyl-N-[(1S)-1-(2-pyrimidin-2-yl-1,2,4-triazol-3-yl)ethyl]-6,8-bis(trifluoromethyl)quinolin-4-amine]
≥ 80%: percent control (mortality or growth inhibition) at 200 ppm [1] | percent control (mortality, anti-feedant effect or growth inhibition) at 200 ppm [2] | percent control (mortality or growth inhibition) at 200 ppm [3] | percent control (mortality, anti-feedant effect or growth inhibition) at 200 ppm [4]

CC(Nc1ncnc2c(Br)cc(Br)cc12)c1nccnc1-n1nccn1 (centres unmarked) [P.37, 6,8-dibromo-N-[1-[3-(triazol-2-yl)pyrazin-2-yl]ethyl]quinazolin-4-amine]
≥ 80%: percent control (mortality or growth inhibition) at 200 ppm [1] | percent control (mortality, anti-feedant effect or growth inhibition) at 200 ppm [2] | percent control (mortality or growth inhibition) at 200 ppm [3] | percent control (mortality, anti-feedant effect or growth inhibition) at 200 ppm [4]

C[C@H](Nc1ncnc2c(Cl)cc(C(F)(F)F)cc12)c1ncnn1-c1ccc(C#N)cn1 [P.17, 6-[5-[(1S)-1-[[8-chloro-6-(trifluoromethyl)quinazolin-4-yl]amino]ethyl]-1,2,4-triazol-1-yl]pyridine-3-carbonitrile]
≥ 80%: percent control (mortality or growth inhibition) at 200 ppm [1] | percent control (mortality, anti-feedant effect or growth inhibition) at 200 ppm [2] | percent control (mortality or growth inhibition) at 200 ppm [3] | percent control (mortality, anti-feedant effect or growth inhibition) at 200 ppm [4]

C[C@H](Nc1ccnc2c(C(F)(F)F)cc(C(F)(F)F)cc12)c1ncnn1-c1ncccn1 [P.5, N-[(1S)-1-(2-pyrimidin-2-yl-1,2,4-triazol-3-yl)ethyl]-6,8-bis(trifluoromethyl)quinolin-4-amine]
≥ 80%: percent control (mortality or growth inhibition) at 200 ppm [1] | percent control (mortality, anti-feedant effect or growth inhibition) at 200 ppm [2] | percent control (mortality or growth inhibition) at 200 ppm [3] | percent control (mortality, anti-feedant effect or growth inhibition) at 200 ppm [4]

CC(c1nc(Br)nn1-c1ncccn1)N(C)c1ncnc2c(C(F)(F)F)cc(C(F)(F)F)cc12 (centres unmarked) [P.4, N-[1-(5-bromo-2-pyrimidin-2-yl-1,2,4-triazol-3-yl)ethyl]-N-methyl-6,8-bis(trifluoromethyl)quina-zolin-4-amine]
≥ 80%: percent control (mortality or growth inhibition) at 200 ppm [1] | percent control (mortality, anti-feedant effect or growth inhibition) at 200 ppm [2] | percent control (mortality or growth inhibition) at 200 ppm [3] | percent control (mortality, anti-feedant effect or growth inhibition) at 200 ppm [4]
